Experimental data reported in paper PMC7215238 (Bioorganic & medicinal chemistry letters, 2020).

Experiments:
Assay type in all cases: cell-based
K.pneumoniae IHMA 652780 = assay: MIC by broth microdilution, K. pneumoniae IHMA 652780; details: cation-adjusted Mueller-Hinton broth, CLSI guidelines, clinical strain with reduced susceptibility to PMB
E.coli IHMA 940398 = assay: MIC by broth microdilution, E. coli IHMA 940398; details: cation-adjusted Mueller-Hinton broth, CLSI guidelines, clinical strain with reduced susceptibility to PMB
K.pneumoniae ATCC 4352 = assay: MIC by broth microdilution, K. pneumoniae ATCC 4352; details: cation-adjusted Mueller-Hinton broth, CLSI guidelines
A.baumannii NCTC 13424 = assay: MIC by broth microdilution, A. baumannii NCTC 13424; details: cation-adjusted Mueller-Hinton broth, CLSI guidelines
E.coli ATCC 25922 = assay: MIC by broth microdilution, E. coli ATCC 25922; details: cation-adjusted Mueller-Hinton broth, CLSI guidelines
A.baumannii IHMA 863866 = assay: MIC by broth microdilution, A. baumannii IHMA 863866; details: cation-adjusted Mueller-Hinton broth, CLSI guidelines, clinical strain with reduced susceptibility to PMB
P.aeruginosa ATCC 27853 = assay: MIC by broth microdilution, P. aeruginosa ATCC 27853; details: cation-adjusted Mueller-Hinton broth, CLSI guidelines
P.aeruginosa IHMA 517175 = assay: MIC by broth microdilution, P. aeruginosa IHMA 517175; details: cation-adjusted Mueller-Hinton broth, CLSI guidelines, clinical strain with reduced susceptibility to PMB

Polymyxin B [Compound 1]
MIC K.pneumoniae IHMA 652780 (K.pneumoniae IHMA 652780): 4.0 µg/mL | MIC E.coli IHMA 940398 (E.coli IHMA 940398): 16 µg/mL | MIC K.pneumoniae ATCC 4352 (K.pneumoniae ATCC 4352): 0.125 µg/mL | MIC A.baumannii NCTC 13424 (A.baumannii NCTC 13424): 0.25 µg/mL | MIC E.coli ATCC 25922 (E.coli ATCC 25922): 0.25 µg/mL | MIC A.baumannii IHMA 863866 (A.baumannii IHMA 863866): 32 µg/mL | MIC P.aeruginosa ATCC 27853 (P.aeruginosa ATCC 27853): 0.5 µg/mL | MIC P.aeruginosa IHMA 517175 (P.aeruginosa IHMA 517175): 8.0 µg/mL
